Data reported in PubChem BioAssay (NCI).
Where “and” joins values, the source holds several entries; their conditions need not be identical. Equal values may be shown once.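 Grown in 96-well plates, cells were treated for 48 hours with each compound at five concentrations. Insufficient inhibition: endpoint recorded as highest concentration tested. GI50: concentration for 50% inhibition of growth. TGI: total growth inhibition.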 Calls of active or inactive are those of the source. No stated cut-off is given here; in the data, active means GI50 below about 0.43 µM; inactive means the rest.

Assays:
Assay in all cases: inhibition of tumour cell growth, NCI panel, 48 h
HOP-92 NSCLC = system: HOP-92 NSCLC
NCI-H23 lung = system: NCI-H23 lung
NCI/ADR-RES ovarian = system: NCI/ADR-RES ovarian
OVCAR-8 ovarian = system: OVCAR-8 ovarian
RXF 393 renal = system: RXF 393 renal
SF-295 CNS = system: SF-295 CNS
SK-MEL-5 melanoma = system: SK-MEL-5 melanoma
SNB-19 CNS = system: SNB-19 CNS
SR leukemia = system: SR leukemia

Compound	GI50 (HOP-92 NSCLC)	TGI (HOP-92 NSCLC)	GI50 (NCI-H23 lung)	TGI (NCI-H23 lung)	GI50 (NCI/ADR-RES ovarian)	TGI (NCI/ADR-RES ovarian)	GI50 (OVCAR-8 ovarian)	TGI (OVCAR-8 ovarian)	GI50 (RXF 393 renal)	TGI (RXF 393 renal)	GI50 (SF-295 CNS)	TGI (SF-295 CNS)	GI50 (SK-MEL-5 melanoma)	TGI (SK-MEL-5 melanoma)	GI50 (SNB-19 CNS)	TGI (SNB-19 CNS)	GI50 (SR leukemia)	TGI (SR leukemia)	outcome (SF-295 CNS)	outcome (SNB-19 CNS)
Cc1ccc2c(c1)Sc1c(ccc3ccccc13)N2	7.07 µM	> 100 µM	> 100 µM	> 100 µM	41.9 µM	> 100 µM	35 µM	> 100 µM	> 100 µM	> 100 µM	15.4 µM	> 100 µM	12.4 µM	> 100 µM	> 100 µM	> 100 µM	4.4 µM	> 100 µM		
C#CCNC(=O)c1cccc2c1cc(C)n2-c1nc2c(c(NCc3ccccc3)n1)CCCC2	0.0239 µM	0.0669 µM	0.0195 µM	0.0563 µM	0.0281 µM	0.101 µM	0.0312 µM	0.363 µM	0.0122 µM	0.0406 µM	0.0175 µM	0.0418 µM	0.00886 µM	0.0235 µM	0.0362 µM	0.126 µM	0.0156 µM	0.165 µM		
Cc1cc(-c2cnn3c(NCC4CC(C)(O)C4)cc(Oc4cccnc4)nc23)ccc1C(=O)NC1CC1 (stereo not given)	6.42 µM	> 100 µM	> 100 µM	> 100 µM	> 100 µM	> 100 µM	2.41 µM	> 100 µM	1.55 µM	> 100 µM	3.28 µM	> 100 µM	2.22 µM	> 100 µM	> 60.7 µM	> 100 µM	0.525 µM	> 100 µM		
C=C(C[C@](O)(C(=O)/C=C/c1ccc(Cl)cc1)C(=O)OC)c1ccccc1	4.07 µM	15.5 µM	2.82 µM	11.9 µM	3.11 µM	17.1 µM	3.43 µM	12.8 µM	1.66 µM	3.31 µM	7.96 µM	20.7 µM	4.11 µM	14.6 µM	3.69 µM	12.8 µM	1.59 µM	7.7 µM		
O=C(O)CCNC1CCCCC1	> 100 µM	> 100 µM	> 100 µM	> 100 µM	> 100 µM	> 100 µM	> 100 µM	> 100 µM	> 100 µM	> 100 µM	> 100 µM	> 100 µM	> 100 µM	> 100 µM	> 100 µM	> 100 µM	> 100 µM	> 100 µM		
CS(=O)(=O)c1ccc(-n2nc(C(F)(F)F)cc2OC2CCCC2)cc1	50.7 µM	> 100 µM			25 µM	81.8 µM	43.8 µM	> 100 µM	94.3 µM	> 100 µM	37.4 µM	> 100 µM	19.5 µM	36.2 µM	48.7 µM	> 100 µM	19.8 µM	47.9 µM		
COc1ccc2c(c1)CCCN2c1c2ccccc2nc2ccccc12	0.683 µM	6.46 µM	0.356 µM	5.48 µM	0.275 µM	0.771 µM	0.481 µM	> 100 µM	0.27 µM	0.786 µM	0.281 µM	> 100 µM	0.35 µM	1.66 µM	0.546 µM	> 100 µM	0.383 µM	> 100 µM		
CCN(CC)CCCC(C)Nc1c2ccc(Cl)cc2nc2ccc(O)cc12 (stereo not given)	2.05 µM	12 µM	3.18 µM	13.6 µM	11 µM	26.4 µM	1.73 µM	11.7 µM	1.61 µM	4.27 µM	1.73 µM	3.76 µM	1.73 µM	3.12 µM	3.37 µM	16.3 µM	2.07 µM	7.11 µM		
COc1cc2ncn(-c3cc(OCc4cccs4)c(C(N)=O)s3)c2cc1OC	4.38 µM	> 22 µM	1.24 µM	> 25 µM	2.22 µM	> 25 µM	1.52 µM	> 17 µM	1.31 µM	> 15.7 µM	1.59 µM	> 25 µM	1.94 µM	> 25 µM	3.25 µM	> 25 µM	1.48 µM	> 25 µM		
C[N+]1=C(/C=C/c2ccc(O)c3ncccc23)C(C)(C)c2ccccc21	2.22 µM	7.67 µM	2.62 µM	8.54 µM	0.634 µM	6.08 µM	3.55 µM	> 100 µM	4 µM	16 µM	2.21 µM	5.24 µM	2.26 µM	5.71 µM	3.74 µM	14.4 µM	2.13 µM	15 µM		
O=C(CCc1nnc2sc(-c3ccc(Cl)cc3Cl)nn12)c1nc2ccccc2[nH]1	0.391 µM	1.86 µM	0.694 µM	3 µM	1.42 µM	6.15 µM	1.48 µM	> 23.4 µM	0.394 µM	1.04 µM	1.65 µM	5.56 µM	1.26 µM	2.51 µM	1.41 µM	5.8 µM	0.301 µM			
Nc1nccc(-c2c(-c3ccc(F)cc3)ncn2C2CCC(O)CC2)n1 (stereo not given)	1.62 µM	17.3 µM	9.77 µM	> 25 µM	> 18 µM	> 25 µM	12.3 µM	> 25 µM	4.77 µM	> 23.8 µM	17.7 µM	> 25 µM	3.94 µM	> 25 µM	15.6 µM	> 25 µM	12.5 µM	> 25 µM		
COc1ccc(C(=O)C#Cc2cnc(OC)nc2OC)cc1	19700 µM		35000 µM	3.08 µM		79000 µM	32300 µM	3.4 µM	26800 µM			24.8 µM	25600 µM			24.7 µM	12500 µM	43100 µM	inactive	inactive
COc1ccc(-c2onc(N)c2-c2cc(OC)c3c(c2)OCO3)cc1	4.98 µM	> 100 µM	2.87 µM	> 100 µM	0.947 µM	> 21.8 µM	4.22 µM	> 100 µM	2.71 µM	19 µM	2.32 µM	> 100 µM	2.8 µM	> 25.6 µM	8.24 µM	> 100 µM	0.534 µM	> 100 µM		
O=c1cc(-c2ccccc2)oc2cc(OC/C(=N/O)c3ccccc3)ccc12	13.8 µM	> 50 µM	22.6 µM	> 50 µM	19.8 µM	> 50 µM	32.8 µM	> 50 µM	16 µM	> 50 µM	6 µM	23.4 µM	20.7 µM	> 50 µM	18.2 µM	> 50 µM	31.8 µM	> 50 µM		
COc1ccc2c(c1)C(=O)c1c-2n(CCCn2ccnc2)c(=O)c2cc([N+](=O)[O-])ccc12	< 0.0397 µM		< 0.01 µM	< 0.01 µM	< 0.01 µM	0.192 µM	< 0.01 µM	> 45.7 µM	< 0.0107 µM		< 0.01 µM		< 0.01 µM	< 0.01 µM	< 0.01 µM	> 100 µM	< 0.01 µM			
CC[C@@]1(c2ccccc2)C2=C(CC(C)(C)CC2=O)Nc2[nH]ncc21	> 100 µM	> 100 µM	> 100 µM	> 100 µM	> 100 µM	> 100 µM	> 100 µM	> 100 µM	> 100 µM	> 100 µM	> 100 µM	> 100 µM	> 100 µM	> 100 µM	> 100 µM	> 100 µM	> 100 µM	> 100 µM		
Cc1cc(Cl)cc2c1NC(=O)C2(O)CC(=O)c1ccco1 (stereo not given)		> 100 µM		> 100 µM		> 100 µM		> 100 µM		> 100 µM		> 100 µM		51.5 µM		> 100 µM		64.7 µM		
CCCn1c(=S)sc2c1nc(C)n1c(Nc3ccccc3)nnc21	2.31 µM	20.2 µM	2.77 µM	11.1 µM	3.53 µM	41.9 µM	4.92 µM	> 100 µM	15.1 µM	> 100 µM	2.59 µM	19.8 µM	3.31 µM	11.2 µM	3.94 µM	> 100 µM	1.83 µM	16 µM		
O=C(O)c1nn(-c2ccccc2-c2n[nH]c(=O)[nH]c2=O)c(=O)[nH]c1=O		> 100 µM		> 100 µM		> 100 µM		> 100 µM		> 100 µM		> 100 µM		> 100 µM		> 100 µM		> 100 µM		
Cc1ccc(C(=O)N(CCCN)C(c2oc3cc(Cl)ccc3c(=O)c2Cc2ccccc2)C(C)C)cc1 (stereo not given)	< 0.01 µM	1.76 µM	< 0.01 µM	1.61 µM	0.11 µM	1.17 µM	< 0.01 µM	1.79 µM	< 0.01 µM	1.48 µM	< 0.01 µM	1.48 µM	< 0.01 µM	1.68 µM	1.02 µM	2.41 µM	< 0.01 µM	1.86 µM		
CCCCCCCC(=O)OCC/C=C/C1OC1C1OC(=O)/C=C\C=C\c2nc(oc2C)/C=C(/C)CCC2OC2C1OC(=O)NC(C)=O (stereo not given)	0.0283 µM	0.168 µM	0.023 µM	0.108 µM	0.165 µM	1.88 µM	0.028 µM	0.826 µM	0.0184 µM	0.0562 µM	0.00904 µM	0.0548 µM	0.0248 µM	0.0688 µM	0.0605 µM	1.16 µM	0.0173 µM	0.89 µM		
COc1cc[nH]c1/C=C1\C(=O)Nc2ccc(F)c(C#CC3(O)CCNCC3)c21	0.106 µM	0.794 µM	0.161 µM	1.14 µM	2.11 µM	8.24 µM	0.172 µM	1.65 µM	0.0204 µM	0.201 µM	0.287 µM	2.8 µM	0.24 µM	0.968 µM	0.564 µM	2.15 µM	0.00864 µM	0.141 µM		
O=C1C(Cl)=C(NCCN2CCOCC2)C(=O)c2ncccc21		3.84 µM and 5.47 µM	1.25 µM	3.75 µM and 3.52 µM	4.6 µM	30.8 µM		3.79 µM and 3.29 µM	1.66 µM	3.38 µM and 3.06 µM		3.33 µM and 3.3 µM	1.72 µM	2.32 µM and 3.16 µM	1.99 µM	3.15 µM and 4.01 µM	2.01 µM	5.61 µM		
CC/C=C\C[C@@H](O)C/C=C1/C(=O)C=C[C@H]1C/C=C\CCCC(=O)OC	4.54 µM	15.2 µM	2.4 µM	6.63 µM	3.38 µM	19.7 µM	3.26 µM	10.4 µM	1.85 µM	3.55 µM	2.97 µM	9.27 µM	1.77 µM	3.25 µM	4.62 µM	19.4 µM	0.686 µM	4 µM		
O=C(Nc1ccc(-c2nc(N3CCOCC3)c3cccn3n2)cc1)Nc1cccnc1		0.0637 µM	0.269 µM	> 100 µM	0.393 µM	6.27 µM	0.0491 µM	> 100 µM	0.0345 µM	0.359 µM	0.102 µM	0.581 µM	0.196 µM	0.847 µM			0.245 µM	15 µM		
NC(=O)NS(=O)(=O)c1ccc(N2N=C(C(F)(F)F)CC2c2cc(C(F)(F)F)cc(C(F)(F)F)c2)cc1 (stereo not given)	12.9 µM	29.3 µM	5.32 µM	19.2 µM	6.95 µM	21.6 µM	4.78 µM	20 µM	2.86 µM	5.77 µM			3.07 µM	12 µM	8.03 µM	22.4 µM	3.08 µM	> 100 µM		
O=S(=O)(NC1=NCCN1C(=S)SN1CCn2c1nsc2=S)c1cccc(Cl)c1	25.4 µM	71.3 µM			21.4 µM	69.3 µM	26.4 µM	> 100 µM	4.04 µM	21.6 µM	21.8 µM	58.1 µM	16.7 µM	31.9 µM	19.1 µM	44.4 µM	4.89 µM	50.7 µM		
